biological target: T1, CCR2 (Homo sapiens, UniProt P41597); assay: MCP-1 Receptor Binding Assay in THP-1 Cells (125I-MCP-1 displacement); details: 0.5 nM 125I labeled MCP-1, 2 hours at 30° C., read-out: CCR2 Binding, Inhibition of MCP-1 Binding IC50
T1 construct: host or cells: THP-1 human monocytic cells
Experimental: Compounds of the invention were subjected to various representative biological tests. The results of these tests are intended to illustrate the invention in a non-limiting fashion. MCP-1 Receptor Binding Assay in THP-1 Cells
Human monocytic cell line THP-1 cells were obtained from American Type Culture Collection (Manassas, Va., USA). The THP-1 cells were grown in RPMI-1640 (RPMI: Roswell Park Memorial Institute Medium-cell culture growth media) supplemented with 10% fetal bovine serum in a humidified 5% CO2 atmosphere at 37° C. The cell density was maintained […].
THP-1 (cells were incubated with 0.5 nM ^125I labeled MCP-1 (Perkin-Elmer Life Sciences, Inc. Boston, Mass.) in the presence of varying concentrations of either unlabeled MCP-1 (R & D Systems, Minneapolis, Minn.) or test compound for 2 hours at 30° C. in a 96 well plate. Cells were then harvested onto a filter plate, dried, and 20 μL of Microscint 20 was added to each well. Plates were counted in a TopCount NXT, Microplate Scintillation & Luminescence Counter (Perkin-Elmer Life Sciences, Inc. Boston, Mass.). Blank values (buffer only) were subtracted from all values and drug treated values were compared to vehicle treated values. 1 μM cold MCP-1 was used for nonspecific binding.
Table 1 lists IC50 values for inhibition of MCP-1 binding to CCR2 obtained for test compounds of the invention. Where an IC50 value was not obtained for a particular compound, the percent inhibition is provided at a test concentration of 25 μM.

T1 sequence (P41597 whole entry): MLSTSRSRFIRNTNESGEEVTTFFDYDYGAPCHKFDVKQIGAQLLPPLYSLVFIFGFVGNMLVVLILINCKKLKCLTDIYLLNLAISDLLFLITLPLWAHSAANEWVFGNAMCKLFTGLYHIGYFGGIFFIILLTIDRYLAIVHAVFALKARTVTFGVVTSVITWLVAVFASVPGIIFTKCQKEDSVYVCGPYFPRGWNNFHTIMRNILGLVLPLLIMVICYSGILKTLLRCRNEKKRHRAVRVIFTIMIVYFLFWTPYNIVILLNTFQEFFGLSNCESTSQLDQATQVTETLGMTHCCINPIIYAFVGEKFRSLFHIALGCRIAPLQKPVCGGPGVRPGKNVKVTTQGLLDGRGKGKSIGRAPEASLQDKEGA

**Q.** Which IC50 does the source give for O=C(CNC(=O)c1cccc(C(F)(F)F)c1)NC1CN(C2CCC(n3ccnc3)CC2)C1 (single isomer, unassigned) [Example 31a, N-{[1-(4-Imidazol-1-yl-cyclohexyl)-azetidin-3-ylcarbamoyl]-methyl}-3-trifluoromethyl-benzamide] here?
**A.** 340 nM

**Q.** For O=C(CNC(=O)c1cccc(C(F)(F)F)c1)NC1CN(C2CCC3(CC2)OC(=O)Nc2ccccc23)C1 (single isomer, unassigned) [Example 40a], which IC50 is on record?
**A.** 2200 nM

**Q.** For O=C(CNC(=O)c1cccc(C(F)(F)F)c1)NC1CN(C2CCC(Oc3ncc(Br)cn3)CC2)C1 (single isomer, unassigned) [Example 5a, N-({1-[4-(5-Bromo-pyrimidin-2-yloxy)-cyclohexyl]-azetidin-3-ylcarbamoyl}-methyl)-3-trifluoromethyl-benzamide], which IC50 is on record?
**A.** 24000 nM

**Q.** How did the IC50 turn out when C#Cc1ccc(=O)n(C2CCC(N3CC(NC(=O)CNC(=O)c4cccc(C(F)(F)F)c4)C3)CC2)c1 (centres unmarked) [Example 9, N-({1-[4-(5-Ethynyl-2-oxo-2H-pyridin-1-yl)-cyclohexyl]-azetidin-3-ylcarbamoyl}-methyl)-3-trifluoromethyl-benzamide] was run?
**A.** 1600 nM

**Q.** O=C(CNC(=O)c1cccc(C(F)(F)F)c1)NC1CN(C2CCC(N3C(=O)c4ccccc4C3=O)CC2)C1 (single isomer, unassigned) [Example 24a, N-({1-[4-(1,3-Dioxo-1,3-dihydro-isoindol-2-yl)-cyclohexyl]-azetidin-3-ylcarbamoyl}-methyl)-3-trifluoromethyl-benzamide] was tested. Which IC50 did it give?
**A.** 680 nM

**Q.** With O=C(CNC(=O)c1cccc(C(F)(F)F)c1)NC1CN(C2CCC3(CC2)NC(=O)c2ccccc23)C1 (single isomer, unassigned) [Example 39a] as the compound, how does the IC50 read?
**A.** 1500 nM

**Q.** For O=C(CNC(=O)c1cccc(C(F)(F)F)c1)NC1CN(C2CCC3(CC2)OCc2ccccc23)C1 (single isomer, unassigned) [Example 41a, N-[(1-3′H-Spiro[cyclohex-1,1′-isobenzofuran]-4-yl-azetidin-3-ylcarbamoyl)-methyl]-3-trifluoromethyl-benzamide], which IC50 is on record?
**A.** 80 nM

**Q.** With COc1cccn(C2CCC(N3CC(NC(=O)CNC(=O)c4cccc(C(F)(F)F)c4)C3)CC2)c1=O (single isomer, unassigned) [Example 13a, N-({1-[4-(3-Methoxy-2-oxo-2H-pyridin-1-yl)-cyclohexyl]-azetidin-3-ylcarbamoyl}-methyl)-3-trifluoromethyl-benzamide] as the compound, how does the IC50 read?
**A.** 100 nM

**Q.** For Cc1ccc(C)n1C1CCC(N2CC(NC(=O)CNC(=O)c3cccc(C(F)(F)F)c3)C2)CC1 (centres unmarked) [Example 37, N-({1-[4-(2,5-Dimethyl-pyrrol-1-yl)-cyclohexyl]-azetidin-3-ylcarbamoyl}-methyl)-3-trifluoromethyl-benzamide], which IC50 is on record?
**A.** 9000 nM

**Q.** With O=C(CNC(=O)c1cccc(C(F)(F)F)c1)NC1CN(C2CCC(n3cc(Br)cnc3=O)CC2)C1 (centres unmarked) [Example 3, N-({1-[4-(5-Bromo-2-oxo-2H-pyrimidin-1-yl)-cyclohexyl]-azetidin-3-ylcarbamoyl}-methyl)-3-trifluoromethyl-benzamide] as the compound, how does the IC50 read?
**A.** 2200 nM

**Q.** With O=C(CNC(=O)c1cccc(C(F)(F)F)c1)NC1CN(C2CCC3(CC2)OC(=O)c2ccccc23)C1 (single isomer, unassigned) [Example 38a] as the compound, how does the IC50 read?
**A.** 920 nM

**Q.** Which IC50 does the source give for O=C(CNC(=O)c1cccc(C(F)(F)F)c1)NC1CN(C2CCC(Oc3ccccn3)CC2)C1 (single isomer, unassigned) [Example 2a, N-({1-[4-(Pyridin-2-yloxy)-cyclohexyl]-azetidin-3-ylcarbamoyl}-methyl)-3-trifluoromethyl-benzamide] here?
**A.** 230 nM

**Q.** For O=C(CNC(=O)c1cccc(C(F)(F)F)c1)NC1CN(C2CCC(n3ccc(=O)cc3)CC2)C1 (centres unmarked) [Example 16, N-({1-[4-(4-Oxo-4H-pyridin-1-yl)-cyclohexyl]-azetidin-3-ylcarbamoyl}-methyl)-3-trifluoromethyl-benzamide], which IC50 is on record?
**A.** 7100 nM

**Q.** Which IC50 does the source give for COc1cccnc1OC1CCC(N2CC(NC(=O)CNC(=O)c3cccc(C(F)(F)F)c3)C2)CC1 (centres unmarked) [Example 14, N-({1-[4-(3-Methoxy-pyridin-2-yloxy)-cyclohexyl]-azetidin-3-ylcarbamoyl}-methyl)-3-trifluoromethyl-benzamide] here?
**A.** 280 nM

**Q.** How did the IC50 turn out when O=C(CNC(=O)c1cccc(C(F)(F)F)c1)NC1CN(C2CCC(n3cc(I)cn3)CC2)C1 (centres unmarked) [Example 28, N-({1-[4-(4-Iodo-pyrazol-1-yl)-cyclohexyl]-azetidin-3-ylcarbamoyl}-methyl)-3-trifluoromethyl-benzamide] was run?
**A.** 110 nM

**Q.** With O=C(CNC(=O)c1cccc(C(F)(F)F)c1)NC1CN(C2CCC(Oc3cccnn3)CC2)C1 (centres unmarked) [Example 23, N-({1-[4-(Pyridazin-3-yloxy)-cyclohexyl]-azetidin-3-ylcarbamoyl}-methyl)-3-trifluoromethyl-benzamide] as the compound, how does the IC50 read?
**A.** 410 nM

**Q.** With Cc1ccnc(OC2CCC(N3CC(NC(=O)CNC(=O)c4cccc(C(F)(F)F)c4)C3)CC2)c1 (centres unmarked) [Example 19, N-({1-[4-(4-Methyl-pyridin-2-yloxy)-cyclohexyl]-azetidin-3-ylcarbamoyl}-methyl)-3-trifluoromethyl-benzamide] as the compound, how does the IC50 read?
**A.** 66 nM

**Q.** For O=C(CNC(=O)c1cccc(C(F)(F)F)c1)NC1CN(C2CCC(n3ncc4ccccc43)CC2)C1 (single isomer, unassigned) [Example 32a, N-{[1-(4-Indazol-1-yl-cyclohexyl)-azetidin-3-ylcarbamoyl]-methyl}-3-trifluoromethyl-benzamide], which IC50 is on record?
**A.** 510 nM

**Q.** O=C(CNC(=O)c1cccc(C(F)(F)F)c1)NC1CN(C2CCC(n3cc(I)ccc3=O)CC2)C1 (single isomer, unassigned) [Example 8a, N-({1-[4-(5-Iodo-2-oxo-2H-pyridin-1-yl)-cyclohexyl]-azetidin-3-ylcarbamoyl}-methyl)-3-trifluoromethyl-benzamide] was tested. Which IC50 did it give?
**A.** 430 nM

**Q.** Which IC50 does the source give for Cc1cccn(C2CCC(N3CC(NC(=O)CNC(=O)c4cccc(C(F)(F)F)c4)C3)CC2)c1=O (single isomer, unassigned) [Example 18a, N-({1-[4-(3-Methyl-2-oxo-2H-pyridin-1-yl)-cyclohexyl]-azetidin-3-ylcarbamoyl}-methyl)-3-trifluoromethyl-benzamide] here?
**A.** 330 nM

**Q.** How did the IC50 turn out when O=C(CNC(=O)c1cccc(C(F)(F)F)c1)NC1CN(C2CCC(NC(=O)c3ccc4c(c3)OCO4)CC2)C1 (centres unmarked) [Example 35, Benzo[1,3]dioxole-5-carboxylic acid (4-{3-[2-(3-trifluoromethyl-benzoylamino)-acetylamino]-azetidin-1-yl}-cyclohexyl)-amide] was run?
**A.** 430 nM

**Q.** Which IC50 does the source give for C[Si](C)(C)C#Cc1cnn(C2CCC(N3CC(NC(=O)CNC(=O)c4cccc(C(F)(F)F)c4)C3)CC2)c1 (single isomer, unassigned) [Example 29a, 3-Trifluoromethyl-N-({1-[4-(4-trimethylsilanylethynyl-pyrazol-1-yl)-cyclohexyl]-azetidin-3-ylcarbamoyl}-methyl)-benzamide] here?
**A.** 21 nM

**Q.** With O=C(CNC(=O)c1cccc(C(F)(F)F)c1)NC1CN(C2CCC(n3cccnc3=O)CC2)C1 (centres unmarked) [Example 4, N-({1-[4-(2-Oxo-2H-pyrimidin-1-yl)-cyclohexyl]-azetidin-3-ylcarbamoyl}-methyl)-3-trifluoromethyl-benzamide] as the compound, how does the IC50 read?
**A.** 5900 nM

**Q.** For C#Cc1cnn(C2CCC(N3CC(NC(=O)CNC(=O)c4cccc(C(F)(F)F)c4)C3)CC2)c1 (single isomer, unassigned) [Example 30a, N-({1-[4-(4-Ethynyl-pyrazol-1-yl)-cyclohexyl]-azetidin-3-ylcarbamoyl}-methyl)-3-trifluoromethyl-benzamide], which IC50 is on record?
**A.** 88 nM

**Q.** How did the IC50 turn out when O=C(CNC(=O)c1cccc(C(F)(F)F)c1)NC1CN(C2CCC(Oc3noc4ccccc34)CC2)C1 (single isomer, unassigned) [Example 25a, N-({1-[4-(Benzo[d]isoxazol-3-yloxy)-cyclohexyl]azetidin-3-ylcarbamoyl}-methyl)-3-trifluoromethyl-benzamide] was run?
**A.** 340 nM

**Q.** For O=C(CNC(=O)c1cccc(C(F)(F)F)c1)NC1CN(C2CCC(Oc3ccc4c(c3)OCO4)CC2)C1 (centres unmarked) [Example 33, N-({1-[4-(Benzo[1,3]dioxol-5-yloxy)-cyclohexyl]-azetidin-3-ylcarbamoyl}-methyl)-3-trifluoromethyl-benzamide], which IC50 is on record?
**A.** 410 nM

**Q.** Which IC50 does the source give for Cc1ccc(OC2CCC(N3CC(NC(=O)CNC(=O)c4cccc(C(F)(F)F)c4)C3)CC2)nc1 (single isomer, unassigned) [Example 12a, N-({1-[4-(5-Methyl-pyridin-2-yloxy)-cyclohexyl]-azetidin-3-ylcarbamoyl}-methyl)-3-trifluoromethyl-benzamide] here?
**A.** 820 nM

**Q.** How did the IC50 turn out when O=C(CNC(=O)c1cccc(C(F)(F)F)c1)NC1CN(C2CCC(Oc3nsc4ccccc34)CC2)C1 (single isomer, unassigned) [Example 34a, N-({1-[4-(Benzo[d]isothiazol-3-yloxy)-cyclohexyl]-azetidin-3-ylcarbamoyl}-methyl)-3-trifluoromethyl-benzamide] was run?
**A.** 290 nM

**Q.** Which IC50 does the source give for O=C(CNC(=O)c1cccc(C(F)(F)F)c1)NC1CN(C2CCC(n3oc4ccccc4c3=O)CC2)C1 (single isomer, unassigned) [Example 26a, N-({1-[4-(3-Oxo-3H-benzo[d]isoxazol-2-yl)-cyclohexyl]-azetidin-3-ylcarbamoyl}-methyl)-3-trifluoromethyl-benzamide] here?
**A.** 95 nM

— patent US8324186B2, “4-azetidinyl-1-heteroatom linked-cyclohexane antagonists of CCR2” (Janssen Pharmaceutica N.V., priority 2009, dated 2012)
